Measurements: patent US10155749B2, “Substituted benzimidazolium compounds useful in the treatment of respiratory diseases” (Boehringer Ingelheim International GmbH, priority 2015, dated 2018)

Assays:
[1] = molecular target: T1, ENaC (Epithelial Sodium Channel) (Mus musculus, UniProt Q61180+Q9WU38+Q9WU39); assay: Ussing Chamber assay (short circuit current, amiloride sensitive I_SC) in M-1 cells; format: cell-based; conditions: Mouse kidney M-1 cells, apical application, 37° C.
T1 construct: Mouse kidney M-1 cells were cultivated in DMEM containing 5% FCS and 5 μM dexamethasone; endogenous in cells; host or cells: Mouse kidney M-1 cells
T1 sequence (Q61180 1-699): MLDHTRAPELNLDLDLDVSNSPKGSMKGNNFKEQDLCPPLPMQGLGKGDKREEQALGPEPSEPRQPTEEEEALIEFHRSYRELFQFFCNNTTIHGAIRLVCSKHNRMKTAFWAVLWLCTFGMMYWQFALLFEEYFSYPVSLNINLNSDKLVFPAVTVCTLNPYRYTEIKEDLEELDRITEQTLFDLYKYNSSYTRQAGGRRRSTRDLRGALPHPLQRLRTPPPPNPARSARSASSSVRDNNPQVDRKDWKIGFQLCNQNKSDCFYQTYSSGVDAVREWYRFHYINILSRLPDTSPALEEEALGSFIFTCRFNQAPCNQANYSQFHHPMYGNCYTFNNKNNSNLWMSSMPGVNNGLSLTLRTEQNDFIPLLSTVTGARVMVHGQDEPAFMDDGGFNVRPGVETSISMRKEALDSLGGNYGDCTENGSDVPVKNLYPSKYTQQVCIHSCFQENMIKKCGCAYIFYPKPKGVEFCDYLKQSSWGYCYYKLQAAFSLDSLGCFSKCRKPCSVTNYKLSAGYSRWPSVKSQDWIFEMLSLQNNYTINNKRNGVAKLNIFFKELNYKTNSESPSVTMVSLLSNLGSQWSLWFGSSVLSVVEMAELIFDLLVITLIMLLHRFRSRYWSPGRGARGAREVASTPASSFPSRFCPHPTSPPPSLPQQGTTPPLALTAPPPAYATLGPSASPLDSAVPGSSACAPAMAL
T1 sequence (Q9WU38 1-638): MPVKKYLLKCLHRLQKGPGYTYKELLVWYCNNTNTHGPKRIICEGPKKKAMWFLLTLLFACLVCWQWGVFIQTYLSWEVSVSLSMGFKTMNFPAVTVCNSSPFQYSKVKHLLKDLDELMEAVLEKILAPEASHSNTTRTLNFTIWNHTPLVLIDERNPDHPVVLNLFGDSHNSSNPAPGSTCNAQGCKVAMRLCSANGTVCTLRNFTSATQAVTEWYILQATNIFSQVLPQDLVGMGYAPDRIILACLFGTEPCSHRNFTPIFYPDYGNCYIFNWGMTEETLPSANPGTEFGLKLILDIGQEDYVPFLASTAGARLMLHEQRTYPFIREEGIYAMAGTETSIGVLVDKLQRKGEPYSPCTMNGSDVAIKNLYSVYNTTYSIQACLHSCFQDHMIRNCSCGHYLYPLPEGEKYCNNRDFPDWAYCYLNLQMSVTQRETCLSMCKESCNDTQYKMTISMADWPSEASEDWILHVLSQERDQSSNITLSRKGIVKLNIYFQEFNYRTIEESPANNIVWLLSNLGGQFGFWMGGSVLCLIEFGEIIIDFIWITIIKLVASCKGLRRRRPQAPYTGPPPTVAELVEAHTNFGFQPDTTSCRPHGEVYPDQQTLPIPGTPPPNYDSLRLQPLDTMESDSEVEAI
T1 sequence (Q9WU39 1-655): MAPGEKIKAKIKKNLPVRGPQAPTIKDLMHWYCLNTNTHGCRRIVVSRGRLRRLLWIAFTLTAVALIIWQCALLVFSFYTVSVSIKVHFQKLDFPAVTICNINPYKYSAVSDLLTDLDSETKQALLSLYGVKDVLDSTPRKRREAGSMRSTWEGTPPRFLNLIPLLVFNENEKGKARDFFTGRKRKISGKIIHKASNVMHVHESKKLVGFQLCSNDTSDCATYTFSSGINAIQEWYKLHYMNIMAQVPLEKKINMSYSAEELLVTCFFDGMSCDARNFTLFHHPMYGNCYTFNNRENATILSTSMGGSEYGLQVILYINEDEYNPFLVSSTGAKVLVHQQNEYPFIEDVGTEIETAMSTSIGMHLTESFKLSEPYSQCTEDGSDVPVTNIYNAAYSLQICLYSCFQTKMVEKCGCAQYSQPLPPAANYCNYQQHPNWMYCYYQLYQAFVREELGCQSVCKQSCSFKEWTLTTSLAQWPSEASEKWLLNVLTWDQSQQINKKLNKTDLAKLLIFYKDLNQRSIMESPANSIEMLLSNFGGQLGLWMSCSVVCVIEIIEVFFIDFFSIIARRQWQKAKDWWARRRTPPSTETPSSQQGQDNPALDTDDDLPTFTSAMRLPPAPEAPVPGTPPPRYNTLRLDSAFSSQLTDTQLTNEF
Description: The IC50 values of the example compounds given above were determined in the Ussing Chamber assay.
Ussing Chamber: Mouse kidney M-1 cells were cultivated in DMEM containing 5% FCS and 5 μM dexamethasone for 10 to 12 days on polyester transwell filters. Filters were inserted into a teflon-coated well-plate which fit into the ussing chamber system. Prior to measurement the medium of M-1 cells was replaced with Caco-2 transport buffer (Invitrogen, Germany). During measurements, the Ussing chamber temperature was kept at 37° C. Short circuit currents (I_sc) were measured in the voltage-clamp mode with the software package Lab View for data acquisition and analysis. The transepithelial electrical resistance (TEER) was determined by the application of voltage steps of ±5 mV every 5 sec. Compounds were administered at a final concentration of 3 μM or at increasing concentrations (1-3-10 μM) to the apical solution. At the end of each experiment the amiloride sensitive I_SC was measured by adding 3 μM amiloride to the apical compartment. Results are expressed as inhibition in percent of the amiloride effect or as IC50.

[2] = Permeability in CALU-3 cells; format: in vitro ADME; conditions: human, CALU-3 monolayers, pH 7.4, 37° C., 10 μM compound; for Papp A→B at 90 min, 10 μM: apical-to-basal; for Papp B→A at 90 min, 10 μM: basal-to-apical
Description: Permeability in CALU-3 Cells:
Permeability measurements across polarized, confluent CALU-3 cell monolayers grown on permeable filter supports are used to provide information on the potential of a compound to pass the lung epithelium. Apparent permeability coefficients (Papp) of the compounds across the CALU-3 cell monolayers are measured (pH 7.4, 37° C.) in apical-to-basal (AB) and basal-to-apical (BA) transport direction.
CALU-3 cells (1-2×10^5 cells/1 cm^2 area) are seeded on filter inserts (Costar transwell polycarbonate filters, 0.4 μm pore size) and cultured (for 10-12 days DMEM) until tight monolayers are formed. Compounds of interest are dissolved in appropriate solvent (DMSO, 10 mM stock solution). Stock solutions are diluted with HTP-4 buffer (128.13 mM NaCl, 5.36 mM KCl, 1 mM MgSO4, 1.8 mM CaCl2, 4.17 mM NaHCO3, 1.19 mM Na2HPO4×7H2O, 0.41 mM NaH2PO4×H2O, 15 mM HEPES, 20 mM glucose, 0.25% BSA, pH 7.4) to prepare the transport solutions (10 μM compound, final DMSO<=0.5%). The transport solution (TL) is applied to the apical or basolateral donor side for measuring A-B or B-A permeability (3 filter replicates), respectively. The receiver side contains the same buffer as the donor side. After 30 min of accommodation, samples are collected at the start t0=0 min and at the end of the experiment tn=90 min from the donor and at 0, 30, 60, and 90 min also from the receiver chamber. Volume removed is […] by HTP-4 buffer. The compound concentration in the samples is measured by HPLC-MS/MS or scintillation counting. The permeability coefficient (Papp) and efflux ratio are calculated according to: Papp [cm/s]=(concentration receiver [nM]*volume receiver [mL]/time interval [sec])*(1/filter area)*(1/donor concentration [nM]).

Row | Structure (SMILES) | IC50 [1] [nM] | Papp A→B at 90 min, 10 μM [2] [×10⁻⁶ cm/s] | Papp B→A at 90 min, 10 μM [2] [×10⁻⁶ cm/s]
1 | CCn1c(CNC(=O)c2nc(Cl)c(N)nc2N)[n+](CC)c2ccc(OCCNC(=O)CCN(C)C)cc21.Cl [Example 4.01] | 1 | 0.2 | 0.2
2 | CC[n+]1c(CNC(=O)c2nc(Cl)c(N)nc2N)n(C[C@H](C)O)c2cc(N(C)C)c(C(=O)N3CCN(C(=O)Cc4ccccn4)CC3)cc21.O=C([O-])C(F)(F)F [Example 4.14] | 19 | 0.3 | 0.2
3 | CCCCCOc1cc2c(cc1C(=O)N1CCN(C(=O)Cc3ccccn3)CC1)[n+](CC)c(CNC(=O)c1nc(Cl)c(N)nc1N)n2C[C@H](C)O.O=C([O-])C(F)(F)F [Example 4.15] | 34 | 0.3 | 0.3
4 | CCOCCNC(=O)c1cc2c(cc1N1CCOCC1)n(CC)c(CNC(=O)c1nc(Cl)c(N)nc1N)[n+]2CC.[Cl-] [Example 5.01] | 5 | 0.3 | 0.06
5 | CCn1c(CNC(=O)c2nc(Cl)c(N)nc2N)[n+](CC)c2cc(C(=O)N3CCOCC3)c(N3CCOCC3)cc21 [Example 5.02] | 3 | 0.09 | 0.1
6 | CCn1c(CNC(=O)c2nc(Cl)c(N)nc2N)[n+](CC)c2ccc(OCCNC(=O)[C@H](C)NC)cc21.Cl.[Cl-] [Example 6.02] | 1 | 0.08 | 0.06
7 | CCCCCCN1CCC(NC(=O)c2cc3c(cc2F)n(CC)c(CNC(=O)c2nc(Cl)c(N)nc2N)[n+]3CC)CC1.O=CO.O=C[O-] [Example 10.01] | 1 | 0.3 | 0.3
